Patent US20180271847A1, “TREATMENT OF ACUTE TRAUMATIC INJURY” (priority 2015, published 2018)

Test system: lipofuscin
Experiment: Auto-fluorescence / lipofuscin accumulation after spinal cord contusion injury
Assay type: in vivo
Conditions: rats with contusion injuries to the spinal cord
Description: 4-aminopyridine administration decreases auto-fluorescence following contusion injury to the spinal cord. One of the responses to tissue injury in a broad variety of tissues is the accumulation of substances that may be given the general name of lipofuscin, a name given to lipid-containing residues of lysosomal digestion. This pigment is thought to be the product of oxidation of unsaturated fatty acids and is considered indicative of membrane damage of a nature that occurs widely in tissue injury, a variety of diseases and in aging. Lipofuscin is most readily observed as an auto-fluorescent component of tissue that is seen when tissue is excited with a wide range of […] wavelengths normally used for studying fluorescently labeled proteins, such as antibodies, that are widely used in studying all of the tissues of the body. Lipofuscin accumulation has been reported for cell types of a wide range of tissues, particularly after injury, including liver, kidney, heart muscle, retina, adrenal gland, nerve cells, and red-blood cells, in post-traumatic arthritis and in other tissues.
This is another wholly unexpected ability of 4-AP to beneficially modulate an outcome of traumatic injury that is applicable to a wide range of different tissues.

## Nc1ccncc1 [4-AP, 4-aminopyridine]
  lipofuscin accumulation (tissue auto-fluorescence): little evidence of lipofuscin accumulation
